# Several values for one entry are separate records, joined by “and”; a condition that tells them apart may be missing. Identical values can stand only once.
# What was measured:
# human recombinant CYP3A4 = target: T1, human recombinant CYP3A4 (Homo sapiens, UniProt P08684); test: CYP3A4 inhibition, Vivid CYP450 blue screening kit with baculosomes; type: biochemical; details: for CYP3A4 activity (Fig 5 data): control = 100
# T1 construct: purchased Life Technologies P2858; host or cells: baculosomes (baculovirus-infected insect cell microsomes)
# Experimental: CYP3A4 inhibition assay was carried out by using Vivid® CYP450 Screening Kit from Life Technologies as recommended by the manufacturer (# P2858, Carlsbad, CA). This assay allows rapid measurement of interactions between drugs of interest and CYP enzymes based on their capability to inhibit the production of a fluorescent signal in reactions using CYP BACULOSOMES® Plus Reagents and specific Vivid® Substrates. Briefly, the assay was conducted in a 96-well assay plate. […] The final concentrations of 2.5, 5, 7.5, 10, 25, 50, 75, and 100 μM were achieved by diluting the stocks in 1X Vivid® CYP reaction buffer. […] For ethanol only experiment, 2.5, 5, […], 20, 30, and 50 mM final concentrations were used. The final concentration of acetonitrile in each reaction was 0.01% in 100 μl final reaction volume. The fluorescence was immediately measured using a microplate reader (Cytation™ 5 Cell Imaging Multi-Mode Reader, BioTek, VT) at the 415/460 nm excitation and emission wavelengths.
# The concentrations of all the drugs were quantified using Ab Sciex Analyst® software. Microsomal kinetic data were analyzed using Michaelis-Menten and exponential decay equations. CYP3A4 inhibition data were evaluated by fitting the values to dose-response inhibition and calculated IC50 values were reported. All graphs were plotted and two-tailed t-tests were performed wherever appropriate using GraphPad Prism 5.01 (GraphPad, San Diego, CA). Significant differences between more than two groups analyzed with one-way ANOVA followed by Dunnett’s multiple comparison tests using IBM SPSS […] version 20. A p value <0.05 was considered significant compared to respective controls. The original data and/or statistical analyses for Michaelis-Menten Kinetics, drug metabolism and half-life determination, inhibition studies, and ligand docking are provided in the supporting information (S1 file).
# [1] = Sample stability of EVG in the microsomal matrix (bench-top, freeze-thaw, long-term storage); type: physicochemical
# Experimental: Accuracy and precision of the method were determined by analyzing QC samples that cover the calibration curve range of the analyte. The low QC concentration was selected to be three times the LLOQ as per the FDA guidelines. Inter-day precision and accuracy were calculated by analyzing extracted calibration standards and three QCs at different concentrations as described in our previous publications. […] Carry-over (memory) effect was determined by assessing the extracted blank immediately after the upper limit of quantification (ULOQ, 1000 ng/ml). Matrix effect (ME), recovery efficiency (RE), and process efficiency (PE) were explored by following a previously proposed methodology. The three sets of samples used for the experiments were as follows: A, pure standard solutions of EVG; B, blank microsomal extraction spiked with pure standard solutions of EVG; C, microsomal samples spiked with pure standard solutions of EVG and extracted at the low, medium, and high QC concentrations. After quantitation of the analyte the parameters were calculated using the following formulae. ME (%) = B/A x 100, RE (%) = C/B x 100, PE (%) = C/A x 100. Furthermore, analyte peak areas were corrected with their respective IS peak areas and reported. Finally, sample stability studies for the EVG in the microsomal matrix was tested using low, medium, and high QCs at the bench-top (25°C) and storage conditions (-80°C). Analyte concentrations in these samples were measured after fresh preparation and at 12, 24, and 48 hours. […] For the long-term storage, samples were analyzed after storing them at the -80°C for three months. All determined concentrations were compared with freshly prepared QCs and reported the variation as a percentage of change from the freshly made QCs. The incurred sample reanalysis was also done by randomly selecting 10% of the total samples analyzed. The obtained data was compared with the first time results of the samples to determine whether the variability is beyond ± 20%.
# T1 sequence (P08684 whole entry): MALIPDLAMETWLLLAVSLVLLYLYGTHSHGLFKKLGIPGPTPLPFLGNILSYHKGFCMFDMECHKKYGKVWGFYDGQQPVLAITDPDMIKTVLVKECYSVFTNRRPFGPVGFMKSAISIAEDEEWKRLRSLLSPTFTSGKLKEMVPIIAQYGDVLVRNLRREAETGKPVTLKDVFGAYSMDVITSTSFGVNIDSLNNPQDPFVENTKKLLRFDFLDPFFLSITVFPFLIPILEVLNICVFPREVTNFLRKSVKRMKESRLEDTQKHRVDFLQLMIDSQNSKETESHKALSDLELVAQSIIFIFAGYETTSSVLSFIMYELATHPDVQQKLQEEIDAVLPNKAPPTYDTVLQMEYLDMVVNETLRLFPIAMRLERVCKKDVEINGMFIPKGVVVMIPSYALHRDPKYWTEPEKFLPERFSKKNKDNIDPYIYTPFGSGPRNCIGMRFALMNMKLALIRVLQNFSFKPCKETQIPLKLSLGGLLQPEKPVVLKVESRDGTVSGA
smiles,measurement,setting,value
"COc1cc2c(cc1Cc1cccc(Cl)c1F)c(=O)c(C(=O)O)cn2[C@H](CO)C(C)C [EVG, Elvitegravir]",CYP3A4 activity (Fig 5 data),human recombinant CYP3A4; EVG 2.5 uM,77.957
same,CYP3A4 activity (Fig 5 data),human recombinant CYP3A4; EVG 5 uM,63.9794
same,CYP3A4 activity (Fig 5 data),human recombinant CYP3A4; EVG 7.5 uM,59.992
same,CYP3A4 activity (Fig 5 data),human recombinant CYP3A4; EVG 10 uM,55.6409
same,CYP3A4 activity (Fig 5 data),human recombinant CYP3A4; EVG 25 uM,40.6332
same,CYP3A4 activity (Fig 5 data),human recombinant CYP3A4; EVG 50 uM,32.8987
same,CYP3A4 activity (Fig 5 data),human recombinant CYP3A4; EVG 75 uM,28.0321
same,CYP3A4 activity (Fig 5 data),human recombinant CYP3A4; EVG 100 uM,18.7817
same,IC50,human recombinant CYP3A4; EVG with ethanol at 20 mM,17.5 ± 1.5 µM
same,IC50,"human recombinant CYP3A4; EtOH 20 mM, COBI at concentration matching EVG unless 0.04 μM stated",13 µM and 13.1 µM
same,IC50,"human recombinant CYP3A4; With Ethanol, three values per group",19 µM and 16.5 µM
same,increase in the IC50 by ethanol,human recombinant CYP3A4; ethanol at 20 mM compared to EVG alone,34%
same,long term storage stability,"[1]; -80°C, 3-4 months, data not shown",did not exhibit significant loss in the concentration
same,change from freshly prepared quality controls,"[1]; Freeze thaw (-80°C), cycle 1, High QC 3.50 μM",-3%
same,change from freshly prepared quality controls,"[1]; Freeze thaw (-80°C), cycle 1, Low QC 0.040 μM",-12%
same,change from freshly prepared quality controls,"[1]; Freeze thaw (-80°C), cycle 1, Medium QC 0.75 μM",5%
same,change from freshly prepared quality controls,"[1]; Freeze thaw (-80°C), cycle 2, High QC 3.50 μM",3%
same,change from freshly prepared quality controls,"[1]; Freeze thaw (-80°C), cycle 2, Low QC 0.040 μM",-7%
same,change from freshly prepared quality controls,"[1]; Freeze thaw (-80°C), cycle 2, Medium QC 0.75 μM",3%
same,change from freshly prepared quality controls,"[1]; Freeze thaw (-80°C), cycle 3, High QC 3.50 μM",-15%
same,change from freshly prepared quality controls,"[1]; Freeze thaw (-80°C), cycle 3, Low QC 0.040 μM",-3%
same,change from freshly prepared quality controls,"[1]; Freeze thaw (-80°C), cycle 3, Medium QC 0.75 μM",5%
same,change from freshly prepared quality controls,"[1]; Room Temp (25°C), 0 hours, High QC 3.50 μM",0%
same,change from freshly prepared quality controls,"[1]; Room Temp (25°C), 0 hours, Low QC 0.040 μM",0%
same,change from freshly prepared quality controls,"[1]; Room Temp (25°C), 0 hours, Medium QC 0.75 μM",0%
same,change from freshly prepared quality controls,"[1]; Room Temp (25°C), 12 hours, High QC 3.50 μM",0.1%
same,change from freshly prepared quality controls,"[1]; Room Temp (25°C), 12 hours, Low QC 0.040 μM",-14%
same,change from freshly prepared quality controls,"[1]; Room Temp (25°C), 12 hours, Medium QC 0.75 μM",9%
same,change from freshly prepared quality controls,"[1]; Room Temp (25°C), 24 hours, High QC 3.50 μM",1.8%
same,change from freshly prepared quality controls,"[1]; Room Temp (25°C), 24 hours, Low QC 0.040 μM",-10%
same,change from freshly prepared quality controls,"[1]; Room Temp (25°C), 24 hours, Medium QC 0.75 μM",4%
same,change from freshly prepared quality controls,"[1]; Room Temp (25°C), 48 hours, High QC 3.50 μM",-0.4%
same,change from freshly prepared quality controls,"[1]; Room Temp (25°C), 48 hours, Low QC 0.040 μM",-5%
same,change from freshly prepared quality controls,"[1]; Room Temp (25°C), 48 hours, Medium QC 0.75 μM",7%
same,stability at room temperature,"[1]; microsomal matrix, over 48 hours",considered stable
same,percentage of variation in the freeze-thaw stability studies,[1]; up to 3-4 freeze-thaw cycles,less than 15%

# Reference: PMC4752462 (PLoS ONE, 2016)
